Legend:
[1] = biological target: T1, Acyl-CoA: Cholesterol Acyltransferase (ACAT) (Rattus norvegicus, UniProt Q7TQM4); test: Inhibition of Acyl-CoA: Cholesterol Acyltransferase (ACAT) in hepatic microsomes (In Vitro Assay); type: biochemical, rat (male Sprague Dawley); conditions: 75 μM 14C-oleoyl-CoA, pH 7.4, 37° C., 15 min preincubation, 10 min
T1 construct: Microsomes were obtained by differential centrifugation; from tissue; host or cells: liver microsomes of male Sprague Dawley rats
T1 sequence (Q7TQM4 1-524): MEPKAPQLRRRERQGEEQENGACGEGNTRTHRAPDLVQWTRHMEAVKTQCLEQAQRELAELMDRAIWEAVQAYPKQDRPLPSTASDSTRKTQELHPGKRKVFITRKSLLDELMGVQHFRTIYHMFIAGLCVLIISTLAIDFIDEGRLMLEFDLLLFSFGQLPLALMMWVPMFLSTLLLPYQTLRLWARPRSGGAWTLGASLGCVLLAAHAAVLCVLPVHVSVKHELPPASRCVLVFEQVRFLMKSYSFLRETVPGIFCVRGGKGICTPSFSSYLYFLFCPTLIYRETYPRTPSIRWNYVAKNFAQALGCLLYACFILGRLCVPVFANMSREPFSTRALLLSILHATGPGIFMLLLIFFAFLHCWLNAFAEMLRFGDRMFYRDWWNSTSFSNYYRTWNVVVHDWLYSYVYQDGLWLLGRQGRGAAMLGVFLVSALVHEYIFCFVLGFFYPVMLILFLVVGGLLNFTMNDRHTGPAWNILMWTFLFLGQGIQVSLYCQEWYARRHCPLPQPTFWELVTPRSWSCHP
Experimental: A. Assay of the Inhibition of Acyl-CoA: Cholesterol Acyltransferase (ACAT) in Hepatic Microsomes (In Vitro Assay)
The ability of the compounds to inhibit ACAT, the enzyme responsible for the intracellular synthesis of cholesteryl esters, was tested as follows. Male Sprague Dawley rats weighing 150-300 g, were fed rat chow ad libitum. The animals were fasted for twenty-four hours prior to being euthanized by CO2. The livers were perfused in situ with 50 ml of cold 0.25 sucrose, excised, and homogenized in three volumes of 0.1M phosphate buffer, pH 7.4, that contained 0.5 mM EDTA (ethylenediamine-tetraacetic acid), 1.0 mM glutathione, 0.25M sucrose and 20 mM leupeptin. Microsomes were obtained by differential centrifugation; the supernatant from an initial spin at 15,000× g for 15 minutes was centrifuged at 105,000× g for 1 hour to pellet the microsomes. The microsomes were suspended in 0.1M phosphate buffer, pH 7.4 with 1 mM GSH and stored at -70° C. Microsomes were used within one month of preparation.
The control assay in a final volume of 200 μl consisted of 200 μg of microsomal protein, 75 μM ^14 C-oleoyl-CoA (10,000 dpm/nmol) in 0.1M phosphate, pH 7.4, that contained 1 mM glutathione. Compounds were added in 5 μl of DMSO (dimethyl sulfoxide) and additional controls were run with DMSO only. All components, except the oleoyl-CoA, were preincubated for 15 min. at 37° C. prior to the initiation of the reaction by the addition of oleoyl-CoA. The assay was terminated after 10 min by the addition of 4 ml of chloroform:methanol (2:1, v/v). 20,000 dpm of ^3 H-cholesteryl oleate and 10 μg of unlabeled cholesteryl oleate and oleic acid were added as an internal standard and carriers, respectively. After allowing 10 min. for lipid extraction, the samples were centrifuged at 1,000× g for 10 min to separate the solvent layers. The chloroform layer containing the neutral lipids was spotted onto a Baker SI250-Pa silica gel TLC plate and the plate developed using a hexane:diethyl ether:acetic acid (170:30:1) v/v/v) mobile phase. The lipids were visualized by their interaction with iodine vapor and the cholesteryl ester spot was scraped into a scintillation vial and counted. The specific activity of ACAT in the control incubation averaged 260 pmol/min/mg microsomal protein. The data obtained are expressed as the concentration at which ACAT activity is inhibited by 50% (IC50).

[2] = system: ACAT; test: Systemic availability of ACAT inhibitors (Ex Vivo Assay): ACAT activity in livers from orally dosed rats; design: species or system rat (male (CD) Sprague Dawley); conditions: rat, oral gavage 10 mg/kg, days 1-3, livers taken 3 h after last dose
Experimental: B. Assay for the Systemic Availability of ACAT Inhibitors (Ex Vivo Assay)
The inhibition of ACAT activity in livers obtained from rats orally dosed with an inhibitor was used as a determination of the compound's systemic availability. The ability of ACAT inhibitors to affect cholesterol esterification in livers obtained from dosed animals was tested as follows. This assay is also referred to herein as the Ex Vivo Assay. Male (CD) Sprague Dawley rats weighing from 190-210 g were fed purina lab chow ad libitum. Rats, three per group, were orally gavaged with 10 mg/kg of active ACAT inhibitor. The compounds were dissolved in ethanol (10% of final volume); a PEG solution (80 propylene glycol:20 polyethylene glycol 400, w:w) was added and the compound was mixed completely prior to dosing. A control group received the dosing vehicle alone. The animals were dosed once on Day 1 (am), twice on Day 2 (am and pm) and once on the morning of Day 3. Three hours after the last dose animals were euthanized using CO2. Livers were perfused with a 0.25M sucrose solution, excised, and frozen. Livers were thawed and resuspended in buffer (2 mL/g, 0.1M Phosphate, pH 7.4, 1.0 mM glutathione, 0.5 mM EDTA, 20 μM leupeptin, 60 μM benzamidine, and 0.25M sucrose). The samples were homogenized and post nuclear microsomes were obtained by centrifugation: 1.000× g for 5 min. and the resulting supernatant, 100,000× g for 1 hr. Microsomes were resuspended in phosphate buffer to approximately 25 mg/mL and frozen at -70° C. until assayed for ACAT activity.
ACAT assays contained in a final volume of 200 μl:100 ug microsomal protein, 75 μM ^14 C-oleoyl-CoA (10,000 dpm/nmol), 0.75 mg bovine serum albumin, 0.1M phosphate buffer, pH 7.4, and 1 mM glutathione. All components, except the oleoyl-CoA, were preincubated for 15 min at 37° C. prior to the initiation of the reaction by the addition of oleoyl-CoA. The assay was terminated after 10 min and ACAT activity determined as described in section A above. The average specific activity of ACAT in the vehicle control group was 661 +/- 64 pmol/min/mg (SEM). The data (% inhibition) are expressed as 100 minus the % ACAT activity in livers from dosed animals versus those from a vehicle control group.

Molecule	IC50 [1] [µM]	Inhibition of ACAT, Ex Vivo Assay (% inhibition) ([2]; given as number) [%]	Inhibition of ACAT, Ex Vivo Assay (% inhibition) ([2]; class symbols)
CCCCO[C@H]1[C@@H](OC)O[C@H](C(=O)Nc2c(SC)cc(C)nc2SC)C(OCc2ccccc2)[C@@H]1OCCCC (stereo in doubt) [Example 426, (2S,3R,4S,5R,6S)-N-[2,4-bis(methylthio)-6-methylpyridin-3-yl]-3-benzyloxy-4,5-dibutoxy-6-methoxy-3,4,5,6-tetrahydro-2H-pyran-2-carboxamide]	11 to 50	–	–
CCCCCCC1=C(CCCCCC)CC(C(=O)Nc2c(C(C)C)cccc2C(C)C)SC1 (stereo not drawn) [Example 1]	< 2	–	–
CCCCCCC1=C(CCCCCC)CC(C(=O)Nc2c(C)cccc2C)SC1 (stereo not drawn) [Example 2]	< 2	–	–
CCCCCCC1=C(CCCCCC)CC(C(=O)Nc2c(Cl)cccc2Cl)SC1 (stereo not drawn) [Example 3]	3 to 10	–	–
CC(C)(C)C1C=CCC(C(=O)Nc2ccc(F)cc2F)S1 (stereo not drawn) [Example 17]	11 to 50	–	–
CCCCCC1=C(CCCCC)CC(C(=O)Nc2c(C(C)C)cccc2C(C)C)SC1 (stereo not drawn) [Example 27, N-(2,6-diisopropylphenyl)-3,6-dihydro-4,5-dipentyl-2H-thiopyran-2-carboxamide]	< 2	–	–
CCCCCC1=C(CCCCC)CC(C(=O)Nc2c(C)cccc2C)SC1 (stereo not drawn) [Example 28]	< 2	–	–
CCCCCC1=C(CCCCC)CC(C(=O)Nc2c(Cl)cccc2Cl)SC1 (stereo not drawn) [Example 29]	< 2	–	–
CCCCCC1=C(CCCCC)CC(C(=O)Nc2ccc(F)cc2F)SC1 (stereo not drawn) [Example 30]	11 to 50	–	–
CCCCCC1=C(CCCCC)CC(C(=O)Nc2c(SC)cc(C)nc2SC)SC1 (stereo not drawn) [Example 31]	< 2	< 10	–
CCCCCC1=C(CCCCC)CC(C(=O)Nc2cncnc2SC)SC1 (stereo not drawn) [Example 32]	3 to 10	–	–
CCCCCC1=C(CCCCC)CC(C(=O)Nc2cccnc2SC)SC1 (stereo not drawn) [Example 33]	11 to 50	–	–
CCCCCC1=C(CCCCC)CC(C(=O)Nc2ccc(SC)nc2)SC1 (stereo not drawn) [Example 34]	11 to 50	–	–
CCCCCCCCC1=C(CCCCCCCC)CC(C(=O)Nc2c(SC)cc(C)nc2SC)SC1 (stereo not drawn) [Example 35]	< 2	–	–
CCCCCC1=C(CCCCC)CC(C(=O)Nc2c(C)nn(C)c2SC)SC1 (stereo not drawn) [Example 39]	< 2	–	–
CCCCC1=C(CCCC)CC(C(=O)Nc2c(C(C)C)cccc2C(C)C)SC1 (stereo not drawn) [Example 40]	< 2	–	–
CCCCC1=C(CCCC)CC(C(=O)Nc2c(C)cccc2C)SC1 (stereo not drawn) [Example 41]	< 2	–	–
CCCCC1=C(CCCC)CC(C(=O)Nc2c(Cl)cccc2Cl)SC1 (stereo not drawn) [Example 42]	< 2	–	+ (10-49%)
CC1=C(C)CC(C(=O)Nc2c(C(C)C)cccc2C(C)C)SC1 (stereo not drawn) [Example 53]	3 to 10	–	–

Molecule	IC50 [1] [µM]	Inhibition of ACAT, Ex Vivo Assay (% inhibition) ([2]; given as number) [%]	Inhibition of ACAT, Ex Vivo Assay (% inhibition) ([2]; class symbols)
CSc1cc(C)nc(SC)c1NC(=O)C1CC(C)=C(C)CS1 (stereo not drawn) [Example 57]	< 2	–	–
CCCCCC1C=CC(CCCCC)C(C(=O)Nc2c(C(C)C)cccc2C(C)C)S1 (stereo not drawn) [Example 66, N-(2,6-diisopropylphenyl)-3,6-dihydro-3,6-dipentyl-2H-thiopyran-2-carboxamide]	< 2	–	++ (>50%)
CCCCCC1C=CC(CCCCC)C(C(=O)Nc2c(C)cccc2C)S1 (stereo not drawn) [Example 67]	< 2	–	–
CCCCCC1C=CC(CCCCC)C(C(=O)Nc2c(Cl)cccc2Cl)S1 (stereo not drawn) [Example 68]	< 2	–	–
CCCCCC1C=CC(CCCCC)C(C(=O)Nc2ccc(F)cc2F)S1 (stereo not drawn) [Example 69]	3 to 10	–	–
CCCCCC1C=CC(CCCCC)C(C(=O)Nc2c(SC)cc(C)nc2SC)S1 (stereo not drawn) [Example 70, N-[2,4-bis(methylthio)-6-methylpyridin-3-yl]-3,6-dipentyl-2,3-dihydro-2H-thiopyran-2-carboxamide]	< 2	–	++ (>50%)
CCCCCC1=CC(CCCCC)C(C(=O)Nc2c(C(C)C)cccc2C(C)C)SC1 (stereo not drawn) [Example 79]	< 2	–	–
CC1=C(C)CC(C(=O)Nc2c(C(C)C)cccc2C(C)C)OC1 (stereo not drawn) [Example 104]	11 to 50	–	–
CSc1cc(C)nc(SC)c1NC(=O)C1CC(C)=C(C)CO1 (stereo not drawn) [Example 106, N-[2,4-bis(methylthio)-6-methyl-3-pyridyl]-2,3-dihydro-4,5-dimethyl-2H-pyran-2-carboxamide]	11 to 50	–	–
CCCCCC1C=CC(CCCCC)[S+]([O-])C1C(=O)Nc1c(SC)cc(C)nc1SC (stereo not drawn) [Example 120]	< 2	–	–
CSc1cc(C)nc(SC)c1NC(=O)C1SC(c2ccccc2)C=CC1c1ccccc1 (stereo not drawn) [Example 132]	< 2	–	–
CCCC1C=CC(CCC)C(C(=O)Nc2c(SC)cc(C)nc2SC)S1 (stereo not drawn) [Example 140]	< 2	< 10	–
CSc1cc(C)nc(SC)c1NC(=O)C1SCC=CC1OC(C)=O (stereo not drawn) [Example 168]	3 to 10	–	–
CSc1cc(C)nc(SC)c1NC(=O)C1SC(CCCCl)C=CC1CCCCl (stereo not drawn) [Example 180]	< 2	–	–
CSc1cc(C)nc(SC)c1NC(=O)C1SC(CCCSC2CCCCC2)C=CC1CCCSC1CCCCC1 (stereo not drawn) [Example 184]	< 2	–	–
CCCCCCSC1CC(=O)CC(C(=O)Nc2c(SC)cc(C)nc2SC)S1 (stereo not drawn) [Example 402, N-[2,4-bis(methylthio)-6-methylpyridin-3-yl]-6-hexylthio-2,3,5,6-tetrahydro-4H-thiopyran-4-one-2-carboxamide]	< 2	–	–
CCCCCOc1cc2c(cc1OC)CC(CCCC)CSC2C(=O)Nc1c(SC)cc(C)nc1SC (stereo not drawn) [Example 907, N-[2,4-bis(methylthio)-6-methylpyridin-3-yl]-4-butyl-7-methoxy-8-pentoxy-1,3,4,5-tetrahydro-2-benzothiepin-1-carboxamide]	< 2	–	–
N-[2,6-bis(1-methylethyl)phenyl]-6,7-dimethoxy-1,2,3,4-tetrahydro-2-thianaphthalene-1-carboxamide [Example 613]	11 to 50	–	–

From patent US5491152A, “Derivatives of cyclic ethers and sulfides for the treatment of atherosclerosis” (The Du Pont Merck Pharmaceutical Company, priority 1994, dated 1996)
